According to PubChem BioAssay (NCI):
Several values for one entry are separate records, joined by “and”; a condition that tells them apart may be missing. Equal values may be shown once.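 GI50 is the concentration that inhibits growth by half. TGI marks complete inhibition of growth.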

Assays:
Assay in all cases: NCI anticancer screen, dose series, 384-well format
786-0 renal = tested on: 786-0 renal
A498 renal = tested on: A498 renal
A549 NSCLC = tested on: A549 NSCLC
ACHN renal = tested on: ACHN renal
BT-549 breast = tested on: BT-549 breast
CAKI-1 renal = tested on: CAKI-1 renal
CCRF-CEM leukemia = tested on: CCRF-CEM leukemia
COLO 205 colon = tested on: COLO 205 colon
DU-145 prostate = tested on: DU-145 prostate
EKVX NSCLC = tested on: EKVX NSCLC
HCC-2998 colon = tested on: HCC-2998 colon
HCT-116 colon = tested on: HCT-116 colon
HCT-15 colon = tested on: HCT-15 colon
HL-60(TB) leukemia = tested on: HL-60(TB) leukemia
HOP-62 NSCLC = tested on: HOP-62 NSCLC
HOP-92 NSCLC = tested on: HOP-92 NSCLC
HS 578T breast = tested on: HS 578T breast
HT29 colon = tested on: HT29 colon
IGROV1 ovarian = tested on: IGROV1 ovarian
K-562 leukemia = tested on: K-562 leukemia
KM12 colon = tested on: KM12 colon
LOX IMVI melanoma = tested on: LOX IMVI melanoma
M14 melanoma = tested on: M14 melanoma
MALME-3M melanoma = tested on: MALME-3M melanoma
MCF7 breast = tested on: MCF7 breast
MDA-MB-231 breast = tested on: MDA-MB-231 breast
MDA-MB-435 melanoma = tested on: MDA-MB-435 melanoma
MDA-MB-468 breast = tested on: MDA-MB-468 breast
MOLT-4 leukemia = tested on: MOLT-4 leukemia

Cc1cc(C(=O)NC(CCC(=O)O)C(=O)O)sc1CCC1CNc2nc(N)[nH]c(=O)c2C1 (stereo not drawn)
GI50 ([…]-0 renal): < 10 nM
TGI (786-0 renal): < 10 nM
GI50 (A498 renal): < 10 nM
TGI (A498 renal): 11.3 nM and 25.3 nM
GI50 (A549 NSCLC): 20.1 nM and 24.2 nM
TGI (A549 NSCLC): 42.8 nM and 61 nM
GI50 (ACHN renal): < 10 nM and 19.6 nM
TGI (ACHN renal): < 10 nM and 43.1 nM
GI50 (BT-549 breast): 19.3 nM and 18.2 nM
TGI (BT-549 breast): 37.5 nM and 36.4 nM
GI50 (CAKI-1 renal): < 10 nM
TGI (CAKI-1 renal): < 10 nM
GI50 (CCRF-CEM leukemia): < 10 nM
TGI (CCRF-CEM leukemia): 11.8 nM and 18.6 nM
GI50 (COLO 205 colon): 28.5 nM and 29.7 nM
TGI (COLO 205 colon): 81.6 nM and 141 nM
GI50 (DU-145 prostate): < 10 nM
TGI (DU-145 prostate): < 10 nM and 29.4 nM
GI50 (EKVX NSCLC): 12 nM and 17.1 nM
TGI (EKVX NSCLC): 28.8 nM and 36.1 nM
GI50 (HCC-2998 colon): 22.4 nM and 51.4 nM
TGI (HCC-2998 colon): 77.2 nM and 378 nM
GI50 (HCT-116 colon): < 10 nM and 15.9 nM
TGI (HCT-116 colon): 24.8 nM and 39.8 nM
GI50 (HCT-15 colon): 25 nM and 31.4 nM
TGI (HCT-15 colon): 73.3 nM and 158 nM
GI50 (HL-60(TB) leukemia): < 10 nM
TGI (HL-60(TB) leukemia): < 10 nM and 14.1 nM
GI50 (HOP-62 NSCLC): 18.2 nM
TGI (HOP-62 NSCLC): 34.6 nM and 35.8 nM
GI50 (HOP-92 NSCLC): < 10 nM
TGI (HOP-92 NSCLC): < 10 nM and 14.9 nM
GI50 (HS 578T breast): 22 nM and 25.9 nM
TGI (HS 578T breast): 60.1 nM and 107 nM
GI50 (HT29 colon): < 10 nM and 17 nM
TGI (HT29 colon): 28.5 nM and 46.4 nM
GI50 (IGROV1 ovarian): 19.7 nM and 20.3 nM
TGI (IGROV1 ovarian): 40.9 nM and 43.8 nM
GI50 (K-562 leukemia): < 10 nM
TGI (K-562 leukemia): < 10 nM
GI50 (KM12 colon): 25.6 nM and 28.7 nM
TGI (KM12 colon): 97.6 nM and 196 nM
GI50 (LOX IMVI melanoma): 19.4 nM and 20 nM
TGI (LOX IMVI melanoma): 40.7 nM and 44.4 nM
GI50 (M14 melanoma): < 10 nM
TGI (M14 melanoma): < 10 nM and 22.8 nM
GI50 (MALME-3M melanoma): 16 nM and 19.8 nM
TGI (MALME-3M melanoma): 35.8 nM and 41.1 nM
GI50 (MCF7 breast): < 10 nM and 17.5 nM
TGI (MCF7 breast): 28 nM and 47.7 nM
GI50 (MDA-MB-231 breast): 388 nM and 1680 nM
TGI (MDA-MB-231 breast): 1430 nM and 3460 nM
GI50 (MDA-MB-435 melanoma): 17.3 nM and 16.7 nM
TGI (MDA-MB-435 melanoma): 38.2 nM and 38.7 nM
GI50 (MDA-MB-468 breast): 17.5 nM and 17.6 nM
TGI (MDA-MB-468 breast): 33.9 nM and 37.5 nM
GI50 (MOLT-4 leukemia): < 10 nM
TGI (MOLT-4 leukemia): 12.8 nM and 16.8 nM
